Measurements taken from article PMC2362731, “Phase I study of Carzelesin (U-80,244) given (4-weekly) by intravenous bolus schedule” (British Journal of Cancer, 1999).

Key:
rabbits = system: rabbits; design: method as in McGovren et al, 1984; details: ref McGovren et al, 1984; cited from earlier work
mice = system: mice; design: method as in McGovren et al, 1984; details: ref McGovren et al, 1984; cited from earlier work
patients = system: patients; design: method as in Sessa et al, 1994; details: day 1 q 4 weeks schedule; ref Sessa et al, 1994; cited from earlier work
[1] = Plasma pharmacokinetics of Carzelesin and metabolites by HPLC, first course; type: in vivo, human; details: for mean concentration of metabolite: highest dose level 300 of Carzelesin
Procedure: Carzelesin is a cyclopropylpyrroloindole analogue which acts as a DNA-sequence-specific alkylating agent. In this phase I study, Carzelesin was given as a 4-weekly 10 min IV infusion to 51 patients with advanced solid tumours. Patients received a median of two courses (range 1–5) at one of nine dose levels: 24, 48, 96, 130, 150, 170, 210, 250 and 300 μg m^−2. According to NCI-CTC criteria, non-haematological toxicities (grade 1/2) included fever, nausea and vomiting, mucositis and anorexia, none of which was clearly dose related. The dose-limiting toxicity was haematological and consisted mainly of neutropenia and to a lesser extent thrombocytopenia. From the dose level 150 μg m^−2, the haematological toxicity (particularly thrombocytopenia) was delayed in onset, prolonged and cumulative in some patients. In several courses, double WBC nadirs occurred. The maximum tolerated dose for a single course was 300 μg m^−2. From the dose level 170 μg m^−2, the intended dose intensity could not be delivered to most patients receiving > 2 courses owing to cumulative haematological toxicity. The dose level with the best dose intensity for multiple courses was 150 μg m^−2. The pharmacokinetics of Carzelesin and its metabolites (U-76,073; U-76,074) have been established in 31 patients during the first course of treatment using a HPLC method. […] The concentration of U-76,074 (active metabolite) extended above the lower limit of quantitation (1 ng ml^−1) for short periods of time and only at the higher dose levels. There was no relationship between neutropenia and the AUC of the prodrug Carzelesin, but the presence of detectable plasma levels of the active metabolite U-76,074 was usually associated with a substantial decrease in ANC values. © 1999 Cancer Research Campaign
Carzelesin (U-80,244, Figure 1A) is a cyclopropylpyrroloindole (CPI) prodrug analogue of CC-1065. […] CPI drugs are a class of compounds with unique DNA interactive properties. These agents fit into the minor groove region of DNA, and the CPI function in the molecule mediates a covalent binding to the N3 position of adenine in A-T rich regions, thus forming DNA adducts in a sequence selective fashion (Hurley et al, 1984; Reynolds et al, 1985). Three new CPIs have now been developed. […] Bizelesin differs from the classical CPI drugs in that it contains two chloromethyl functions, which are both converted (via intramolecular rearrangements) to the CPI alkyl- ating species that interact with DNA. Consequently, this agent is capable of forming DNA interstrand cross-links (Lee et al, 1991). […] Therefore, efforts were directed to modu- late the alkylation rate by the preparation of CPI prodrugs that would require chemical or enzymatic conversion. The activation of Carzelesin is a two-step reaction with hydrolysis of the phenyl- urethane substituent to form the intermediate compound U-76,073, followed by ring closure to form the active product U-76,074 (Figure 1B). […] This higher efficacy may be related to the pharmacologic features of the compound. […] Phase I study of Carzelesin (U-80,244) given (4-weekly) by intravenous bolus schedule A Awada1, CJA Punt2, MJ Piccart1, O Van Tellingen3, L Van Manen2, J Kerger1, Y Groot4, J Wanders4, J Verweij5 and DJTh Wagener2 1Institut Jules Bordet, Bd de Waterloo 125, 1000 Brussels, Belgium; 2University Hospital, Geert Grooteplein 8, Box 9101, 6500 HB Nijmegen, The Netherlands; 3The Netherlands Cancer Institute (Antoni van Leeuwenhoek Huis), Plesmanlaan 121, 1066 CX Amsterdam, The Netherlands; 4European Organization for Research and Treatment of Cancer - New Drug Development Office, PO Box 7057, Amsterdam, The Netherlands; 5Rotterdam Cancer Institute, Groene Hilledijk 301, 3075 EA Rotterdam, The Netherlands; on behalf of the EORTC Early Clinical Studies Group and EORTC NDDO Summary Carzelesin is a cyclopropylpyrroloindole analogue which acts as a DNA-sequence-specific alkylating agent. […]

[2] = system: granulocytes (ANC), white blood cells (WBC), platelets; test: Pharmacokinetic-pharmacodynamic relationship of bone marrow toxicity (%decr vs AUC); type: in vivo; details: plasma level of U-76,074 above 1 ng ml-1
From the text: Carzelesin (U-80,244, Figure 1A) is a cyclopropylpyrroloindole (CPI) prodrug analogue of CC-1065. […] CPI drugs are a class of compounds with unique DNA interactive properties. These agents fit into the minor groove region of DNA, and the CPI function in the molecule mediates a covalent binding to the N3 position of adenine in A-T rich regions, thus forming DNA adducts in a sequence selective fashion (Hurley et al, 1984; Reynolds et al, 1985). Three new CPIs have now been developed. […] Bizelesin differs from the classical CPI drugs in that it contains two chloromethyl functions, which are both converted (via intramolecular rearrangements) to the CPI alkyl- ating species that interact with DNA. Consequently, this agent is capable of forming DNA interstrand cross-links (Lee et al, 1991). […] Therefore, efforts were directed to modu- late the alkylation rate by the preparation of CPI prodrugs that would require chemical or enzymatic conversion. The activation of Carzelesin is a two-step reaction with hydrolysis of the phenyl- urethane substituent to form the intermediate compound U-76,073, followed by ring closure to form the active product U-76,074 (Figure 1B). […] This higher efficacy may be related to the pharmacologic features of the compound. […] Phase I study of Carzelesin (U-80,244) given (4-weekly) by intravenous bolus schedule A Awada1, CJA Punt2, MJ Piccart1, O Van Tellingen3, L Van Manen2, J Kerger1, Y Groot4, J Wanders4, J Verweij5 and DJTh Wagener2 1Institut Jules Bordet, Bd de Waterloo 125, 1000 Brussels, Belgium; 2University Hospital, Geert Grooteplein 8, Box 9101, 6500 HB Nijmegen, The Netherlands; 3The Netherlands Cancer Institute (Antoni van Leeuwenhoek Huis), Plesmanlaan 121, 1066 CX Amsterdam, The Netherlands; 4European Organization for Research and Treatment of Cancer - New Drug Development Office, PO Box 7057, Amsterdam, The Netherlands; 5Rotterdam Cancer Institute, Groene Hilledijk 301, 3075 EA Rotterdam, The Netherlands; on behalf of the EORTC Early Clinical Studies Group and EORTC NDDO Summary Carzelesin is a cyclopropylpyrroloindole analogue which acts as a DNA-sequence-specific alkylating agent. In this phase I study, Carzelesin was given as a 4-weekly 10 min IV infusion to 51 patients with advanced solid tumours. Patients received a median of two courses (range 1-5) at one of nine dose levels: […]. According to NCI-CTC criteria, non- haematological toxicities (grade 1/2) included fever, nausea and vomiting, mucositis and anorexia, none of which was clearly dose related. […] The concentration of U-76,074 (active metabolite) extended above the lower limit of quantitation (1 ng ml-1) for short periods of time and only at the higher dose levels. […]

COc1c(O)c2c(c3cc(C(=O)N4CCc5c4c(O)c(OC)c4[nH]c(C(=O)N6CC7CC78C6=CC(=O)c6[nH]cc(C)c68)cc54)[nH]c13)CCN2C(N)=O (centres unmarked) [CC-1065]
toxicity at sub-therapeutic doses (rabbits): delayed fatal toxicity
toxicity at sub-therapeutic doses (mice): delayed fatal toxicity

Cn1cc(NC(=O)c2cc(NC(=O)c3cc(NC(=O)c4ccc(N(CCCl)CCCl)cc4)cn3C)cn2C)cc1C(=O)NCCC(=N)N [Tallimustine]
dose-limiting toxicity (patients): brief neutropenia

CCN(CC)c1ccc2cc(C(=O)Nc3ccc4[nH]c(C(=O)N5C[C@@H](CCl)c6c5cc(O)c5[nH]cc(C)c65)cc4c3)oc2c1 [U-76,073]
mean concentration of metabolite [1]: 18 ng/mL

CCN(CC)c1ccc2cc(C(=O)Nc3ccc4[nH]c(C(=O)N5C[C@H]6C[C@@]67C5=CC(=O)c5[nH]cc(C)c57)cc4c3)oc2c1 [U-76,074]
plasma level of active metabolite, for short periods of time in most patients ([1]; Carzelesin dose of 130 or higher): exceeded 1 ng ml-1
plasma concentration of active metabolite in the majority of patients ([1]; from the Carzelesin dose level 96): 1 to 2 ng/mL
mean concentration of metabolite [1]: 3 ng/mL
decrease in ANC values associated with detectable plasma levels [2]: greater than 60%
